Data taken from patent publication US20160039825A1 (BIOGEN MA INC., priority 2013, published 2016).

What follows are molecules tested against T1, Human ATX protein (Homo sapiens, UniProt Q13822) (assay: Autotaxin (ATX) assay, FRET with FS-3 substrate). Conditions: upper bound bins (no greater than 100, 250 or 500 nM); FS-3 2 μM, ATX 1.0 μg/mL.
T1 construct: made in house
Assay type: biochemical
Method in brief: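 Hydrolysis of the FRET substrate FS-3 (2 μM final) unquenches fluorescein, read at excitation 485 nm and emission 538 nm after 2 h at room temperature, protected from light. Purified human ATX (1.0 μg/mL) and compound were first incubated for 30 min in pH 7.4 Tris/salt buffer containing 1 mg/mL fatty acid-free BSA.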

| Compound | IC50 |
| --- | --- |
| C[C@H]1CNC[C@H](C)N1C(=O)c1cc2n(n1)CCCN(C(=O)OCc1cc(Cl)cc(C(F)(F)F)c1)C2 [Example 160] | ≤ 100 nM |
| C[C@@H]1CNC[C@@H](C)N1C(=O)c1cc2n(n1)CCCN(C(=O)OCc1cc(Cl)cc(C(F)(F)F)c1)C2 [Example 161] | ≤ 100 nM |
| CC1CNCC(C)N1C(=O)c1cc2n(n1)CCN(C(=O)OCc1cc(Cl)cc(C(F)(F)F)c1)C2 (stereo not drawn) [Example 162, 3-chloro-5-(trifluoromethyl)benzyl 2-(2,6-dimethylpiperazine-1-carbonyl)-6,7-dihydropyrazolo[1,5-a]pyrazine-5(4H)-carboxylate] | ≤ 100 nM |
| C[C@@H]1CNC[C@H](C)N1C(=O)c1cc2n(n1)CCCN(C(=O)OCc1cc(C(F)(F)F)cc(C(F)(F)F)c1)C2 [Example 163] | ≤ 100 nM |
| C[C@@H]1CNC[C@H](C)N1C(=O)c1cc2n(n1)CCCN(C(=O)OCc1cc(Cl)cc(C(F)(F)F)c1)C2 [Example 164] | ≤ 100 nM |
| O=C(OCc1cc(Cl)cc(C(F)(F)F)c1)N1CCCn2nc(C(=O)N3CCC4CNCC43)cc2C1 (stereo not drawn) [Example 165] | ≤ 100 nM |
| O=C(OCc1cc(Cl)cc(C(F)(F)F)c1)N1CCCn2nc(C(=O)N3CCC4NCCC43)cc2C1 (stereo not drawn) [Example 166] | ≤ 100 nM |
| O=C(OCc1cc(Cl)cc(C(F)(F)F)c1)N1CCCn2nc(C(=O)N3CC4CCNC4C3)cc2C1 (stereo not drawn) [Example 167] | ≤ 100 nM |
| CN1CC2CN(C(=O)c3cc4n(n3)CCCN(C(=O)OCc3cc(Cl)cc(C(F)(F)F)c3)C4)CC2C1 (stereo not drawn) [Example 168] | ≤ 100 nM |
| O=C(OCc1cc(Cl)cc(C(F)(F)F)c1)N1CCCn2nc(C(=O)N3CCC4(CCNCC4)C3)cc2C1 [Example 169] | ≤ 100 nM |
| O=C(OCc1cc(Cl)cc(C(F)(F)F)c1)N1CCCn2nc(C(=O)N3CC4CNCC4C3)cc2C1 (stereo not drawn) [Example 170] | ≤ 100 nM |
| N#CC1CN(C(=O)c2cc3n(n2)CCCN(C(=O)OCc2cc(Cl)cc(C(F)(F)F)c2)C3)CCN1 (stereo not drawn) [Example 171] | ≤ 100 nM |
| CCN1CCN(C(=O)c2cc3n(n2)CCCN(C(=O)OCc2cc(Cl)cc(C(F)(F)F)c2)C3)C(C)(C)C1 [Example 172] | ≤ 100 nM |
| O=C(NC1=NCCS1)c1cc2n(n1)CCCN(C(=O)OCc1cc(C(F)(F)F)cc(C(F)(F)F)c1)C2 [Example 173] | ≤ 100 nM |
| CN1CCN(C(=O)c2cc3n(n2)CCCN(C(=O)OCc2cc(Cl)cc(C(F)(F)F)c2)C3)C2(CCC2)C1 [Example 174] | ≤ 100 nM |
| O=C(OCc1cc(Cl)cc(C(F)(F)F)c1)N1CCCn2nc(C(=O)N3CCNCC34CCC4)cc2C1 [Example 175] | ≤ 100 nM |
| CN1CCN(C(=O)c2cc3n(n2)CCCN(C(=O)OCc2cc(Cl)cc(C(F)(F)F)c2)C3)C(C)(C)C1 [Example 176, 3-chloro-5-(trifluoromethyl)benzyl 2-(2,2,4-trimethylpiperazine-1-carbonyl)-7,8-dihydro-4H-pyrazolo[1,5-a][1,4]diazepine-5(6H)-carboxylate] | ≤ 100 nM |
| CN1CCN(C(=O)c2cc3n(n2)CCCN(C(=O)OCc2cc(Cl)cc(C(F)(F)F)c2)C3)C(C(F)(F)F)C1 (stereo not drawn) [Example 178] | ≤ 100 nM |
| CCN1CCN(C(=O)c2cc3n(n2)CCCN(C(=O)OCc2cc(Cl)cc(C(F)(F)F)c2)C3)C2(CC2)C1 [Example 179] | ≤ 100 nM |
| CN1CCN(C(=O)c2cc3n(n2)CCCN(C(=O)OCc2cc(Cl)cc(C(F)(F)F)c2)C3)C2(CC2)C1 [Example 180] | ≤ 100 nM |
| O=C(OCc1cc(Cl)cc(C(F)(F)F)c1)N1CCCn2nc(C(=O)N3CCNCC3C(F)(F)F)cc2C1 (stereo not drawn) [Example 181] | ≤ 100 nM |

| Compound | IC50 |
| --- | --- |
| NCCCCNC(=O)c1cc2n(n1)CCCN(C(=O)OCc1cc(C(F)(F)F)cc(C(F)(F)F)c1)C2 [Example 182] | ≤ 100 nM |
| CN1CCN(C(=O)c2cc3n(n2)CCCN(C(=O)OCc2cc(Cl)cc(C(F)(F)F)c2)C3)C(C#N)C1 (stereo not drawn) [Example 183] | ≤ 100 nM |
| CN1CCN(C(=O)c2cc3n(n2)CCCN(C(=O)OCc2cc(Cl)cc(C(F)(F)F)c2)C3)C(C(=O)O)C1 (stereo not drawn) [Example 184] | ≤ 100 nM |
| CN1CCN(C(=O)c2cc3n(n2)CCCN(C(=O)OCc2cc(Cl)cc(C(F)(F)F)c2)C3)CC1C(=O)O (stereo not drawn) [Example 185] | ≤ 100 nM |
| CN1CCN(C(=O)c2cc3n(n2)CCCN(C(=O)OCc2cc(Cl)cc(C(F)(F)F)c2)C3)CC1C(F)(F)F (stereo not drawn) [Example 186] | ≤ 100 nM |
| O=C(OCc1cc(Cl)cc(C(F)(F)F)c1)N1CCCn2nc(C(=O)N3CCNC4(CC4)C3)cc2C1 [Example 187] | ≤ 100 nM |
| O=C(OCc1cc(Cl)cc(C(F)(F)F)c1)N1CCCn2nc(C(=O)N3CC4CNC(C4)C3)cc2C1 (stereo not drawn) [Example 188] | ≤ 100 nM |
| O=C(OCc1cc(Cl)cc(C(F)(F)F)c1)N1CCCn2nc(C(=O)N3CCNC(C(F)(F)F)C3)cc2C1 (stereo not drawn) [Example 189] | ≤ 100 nM |
| C#CCCCCNC(=O)c1cc2n(n1)CCCN(C(=O)OCc1cc(C(F)(F)F)cc(C(F)(F)F)c1)C2 [Example 190] | ≤ 100 nM |
| O=C(O)C1CNCCN1C(=O)c1cc2n(n1)CCCN(C(=O)OCc1cc(C(F)(F)F)cc(C(F)(F)F)c1)C2 (stereo not drawn) [Example 191] | ≤ 100 nM |
| O=C(O)C1CN(C(=O)c2cc3n(n2)CCCN(C(=O)OCc2cc(C(F)(F)F)cc(C(F)(F)F)c2)C3)CCN1 (stereo not drawn) [Example 192] | ≤ 100 nM |
| O=C(OCc1cc(Cl)cc(C(F)(F)F)c1)N1CCCn2nc(C(=O)N3CCCNCC3)cc2C1 [Example 193] | ≤ 100 nM |
| CNC1CCN(C(=O)c2cc3n(n2)CCCN(C(=O)OCc2cc(Cl)cc(C(F)(F)F)c2)C3)C1 (stereo not drawn) [Example 195] | ≤ 100 nM |
| N#CC1CNCCN1C(=O)c1cc2n(n1)CCCN(C(=O)OCc1cc(Cl)cc(C(F)(F)F)c1)C2 (stereo not drawn) [Example 196] | ≤ 100 nM |
| O=C(OCc1cc(Cl)cc(C(F)(F)F)c1)N1CCCn2nc(C(=O)N3CC4CCC3CN4)cc2C1 (stereo not drawn) [Example 197] | ≤ 100 nM |
| CC1CN(C(=O)c2cc3n(n2)CCCN(C(=O)OCc2cc(Cl)cc(C(F)(F)F)c2)C3)CC(C)N1 (stereo not drawn) [Example 198] | ≤ 100 nM |
| CC1CNCC(C)N1C(=O)c1cc2n(n1)CCCN(C(=O)OCc1cc(Cl)cc(C(F)(F)F)c1)C2 (stereo not drawn) [Example 199] | ≤ 100 nM |
| CC1(C)CN(C(=O)c2cc3n(n2)CCCN(C(=O)OCc2cc(Cl)cc(C(F)(F)F)c2)C3)CCN1 [Example 200] | ≤ 100 nM |
| CN1C2CCC1CN(C(=O)c1cc3n(n1)CCCN(C(=O)OCc1cc(Cl)cc(C(F)(F)F)c1)C3)C2 [Example 201] | ≤ 100 nM |
| CNC1CN(C(=O)c2cc3n(n2)CCCN(C(=O)OCc2cc(Cl)cc(C(F)(F)F)c2)C3)C1 [Example 202] | ≤ 100 nM |
| O=C(OCc1cc(Cl)cc(C(F)(F)F)c1)N1CCCn2nc(C(=O)N3C4CCC3CNC4)cc2C1 [Example 203] | ≤ 100 nM |

| Compound | IC50 |
| --- | --- |
| O=C(OCc1cc(Cl)cc(C(F)(F)F)c1)N1CCCn2nc(C(=O)N3C[C@@H]4C[C@H]3CN4)cc2C1 [Example 204] | ≤ 100 nM |
| CCC1CNCCN1C(=O)c1cc2n(n1)CCCN(C(=O)OCc1cc(Cl)cc(C(F)(F)F)c1)C2 (stereo not drawn) [Example 205] | ≤ 100 nM |
| CCC1CN(C(=O)c2cc3n(n2)CCCN(C(=O)OCc2cc(Cl)cc(C(F)(F)F)c2)C3)CCN1 (stereo not drawn) [Example 206] | ≤ 100 nM |
| CC1(C)CNCCN1C(=O)c1cc2n(n1)CCCN(C(=O)OCc1cc(Cl)cc(C(F)(F)F)c1)C2 [Example 207, 3-chloro-5-(trifluoromethyl)benzyl 2-(2,2-dimethylpiperazine-1-carbonyl)-7,8-dihydro-4H-pyrazolo[1,5-a][1,4]diazepine-5(6H)-carboxylate] | ≤ 100 nM |
| CC1CN(C(=O)c2cc3n(n2)CCCN(C(=O)OCc2cc(Cl)cc(C(F)(F)F)c2)C3)CCN1 (stereo not drawn) [Example 208] | ≤ 100 nM |
| O=C(OCc1cc(Cl)cc(C(F)(F)F)c1)N1CCCn2nc(C(=O)N3CC4CCC(C3)N4)cc2C1 [Example 209] | ≤ 100 nM |
| O=C(OCc1cc(Cl)cc(C(F)(F)F)c1)N1CCCn2nc(C(=O)N3CCNCC34CC4)cc2C1 [Example 210] | ≤ 100 nM |
| O=C(OCc1cc(Cl)cc(C(F)(F)F)c1)N1CCCn2nc(C(=O)N3CCN4CCC[C@H]4C3)cc2C1 [Example 211] | ≤ 100 nM |
| O=C1CN(C(=O)c2cc3n(n2)CCCN(C(=O)OCc2cc(Cl)cc(C(F)(F)F)c2)C3)CCN1 [Example 212] | ≤ 100 nM |
| CC1CNCCN1C(=O)c1cc2n(n1)CCCN(C(=O)OCc1cc(Cl)cc(C(F)(F)F)c1)C2 (stereo not drawn) [Example 213] | ≤ 100 nM |
| O=C(OCc1cc(Cl)cc(C(F)(F)F)c1)N1CCCn2nc(C(=O)N3CCN4CCC[C@@H]4C3)cc2C1 [Example 214] | ≤ 100 nM |
| CN1CCN(C(=O)c2cc3n(n2)CCCN(C(=O)OCc2cc(C(F)(F)F)cc(C(F)(F)F)c2)C3)CC1 [Example 215] | ≤ 100 nM |
| CN1CCN(C(=O)c2cc3n(n2)CCCN(C(=O)OCc2cc(Cl)cc(C(F)(F)F)c2)C3)CC1 [Example 216] | ≤ 100 nM |
| CN1C2CCCC1CN(C(=O)c1cc3n(n1)CCCN(C(=O)OCc1cc(Cl)cc(C(F)(F)F)c1)C3)C2 [Example 217] | ≤ 100 nM |
| CN1CCN(C(=O)c2cc3n(n2)CCCN(C(=O)OCc2cc(C(F)(F)F)cc(C(F)(F)F)c2)C3)C(C)(C)C1 [Example 218] | ≤ 100 nM |
| O=C(OCc1cc(C(F)(F)F)cc(C(F)(F)F)c1)N1CCCn2nc(C(=O)N3CCNCC34CC4)cc2C1 [Example 219] | ≤ 100 nM |
| CN1CCN(C(=O)c2cc3n(n2)CCCN(C(=O)OCc2cc(C(F)(F)F)cc(C(F)(F)F)c2)C3)C2(CC2)C1 [Example 220] | ≤ 100 nM |
| O=C(OCc1cc(C(F)(F)F)cc(C(F)(F)F)c1)N1CCCn2nc(C(=O)N3CC4CCC(C3)N4)cc2C1 [Example 221] | ≤ 100 nM |
| CN1CC2CCC1CN2C(=O)c1cc2n(n1)CCCN(C(=O)OCc1cc(C(F)(F)F)cc(C(F)(F)F)c1)C2 (stereo not drawn) [Example 222] | ≤ 100 nM |
| CC1CN(C(=O)c2cc3n(n2)CCCN(C(=O)OCc2cc(C(F)(F)F)cc(C(F)(F)F)c2)C3)CC(C)N1 (stereo not drawn) [Example 223] | ≤ 100 nM |
| O=C(OCc1cc(C(F)(F)F)cc(C(F)(F)F)c1)N1CCCn2nc(C(=O)N3CC4CCC3CN4)cc2C1 (stereo not drawn) [Example 224] | ≤ 100 nM |
